Measurements taken from ChEMBL document CHEMBL6127089, “Novel non-peptide uracil-derived human gonadotropin-releasing hormone receptor antagonists” (Eur J Med Chem, 2024).

Biological target: T1, Gonadotropin-releasing hormone receptor (Homo sapiens, UniProt P30968)
T1 sequence (P30968 whole entry): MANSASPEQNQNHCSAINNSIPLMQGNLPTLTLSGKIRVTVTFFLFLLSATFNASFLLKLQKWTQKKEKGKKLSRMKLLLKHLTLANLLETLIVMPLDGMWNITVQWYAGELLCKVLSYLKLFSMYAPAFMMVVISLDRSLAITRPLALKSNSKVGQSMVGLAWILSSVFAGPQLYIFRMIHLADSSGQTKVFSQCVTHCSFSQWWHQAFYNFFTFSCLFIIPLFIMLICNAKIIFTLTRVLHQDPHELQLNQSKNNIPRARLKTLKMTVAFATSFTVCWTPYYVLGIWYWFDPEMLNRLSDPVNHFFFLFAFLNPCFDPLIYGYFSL
Test: Antagonist activity at wild type HA-tagged human GnRH1 receptor expressed in HEK293T cells assessed as inhibition of GnRH peptide-stimulated IP1 accumulation by measuring GnRH peptide EC50 at 100 uM pretreated for 1 hr followed by stimulation with GnRH peptide for 1 hr (reference value: 2.5 nM)
Assay type: cell-based

EC50 [µM]	Compound
0.11	COc1cccc(-c2c(SC[C@H](NCCCC(=O)O)c3ccccc3)nc(=O)n(Cc3c(F)cccc3C(F)(F)F)c2C)c1F
0.039	COc1cccc(-c2c(N[C@@H](CSCCCC(=O)O)c3ccccc3)nc(=O)n(Cc3c(F)cccc3C(F)(F)F)c2C)c1F
0.0006	COc1cccc(-c2c(C)n(Cc3c(F)cccc3C(F)(F)F)c(=O)n(C[C@H](NCCCC(=O)O)c3ccccc3)c2=O)c1F [ELAGOLIX]
